From US8247370B2, “Conjoint therapy for treating fibrotic diseases” (Promedior, Inc., priority 2006, dated 2012)

Tested on: UUO-induced renal fibrosis
Assay: UUO-induced renal fibrosis, Masson Trichrome staining of kidney sections with image analysis
Assay type: in vivo, Sprague Dawley rats
Conditions: rat UUO kidney, day 14; hSAP 2 mg/kg iv q2d days 0-12; enalapril 200 mg/L in drinking water; HSA control approximately 22%, uninjured kidney approximately 5%
Description: Unilateral Ureter Obstruction (UUO) in the rat is a suitable model of renal fibrosis'. Renal fibrosis was induced in Sprague Dawley rats weighing 200-250 grams. Rats were anesthetized with ketamine (100 mg/kg) and xylazine (5 mg/kg). All surgical procedures were conducted using aseptic techniques.
The left kidney, renal artery and vein were exposed and the ureter occluded using suture. The surgical site was then sutured closed.
Human serum albumin in PBS (group 1) or hSAP in PBS (groups 2-5) was given to animals by intravenous (iv) injection every other day from day 0 to day 12 as detailed in Table 4. Enalapril was be added to the drinking water of animals in groups 2, 5 and 6, beginning on the day of study and continuing until sacrifice (day 14).
On day 14, animals were sacrificed and both the left occluded and right contralateral control kidneys excised.
To determine the extent of fibrosis induced by 14 days of UUO, kidney sections from all groups of animals were stained with Masson Trichrome and the extent of Trichrome positivity determined using image analysis (see FIG. 1). […] However, there was a significant inhibition in Trichrome staining in the animals treated with the combination of enalapril and hSAP (p<0.05; approximately 10%). […]

| Molecule | extent of Trichrome staining (collagen deposition in the kidney) |
| --- | --- |
| CCOC(=O)[C@H](CCc1ccccc1)N[C@@H](C)C(=O)N1CCC[C@H]1C(=O)O [enalapril] | approximately 15% |
| hSAP: human serum amyloid P, a pentraxin family protein that suppresses fibrocyte differentiation | approximately 25% |
